Test [1] concerns Re-engineered ATP-binding aptamer, 4-nt poly-T linker (DNA, aptamer) ACCTGGGGGAGTATTTTTTGCGGAGGAAGGA
The test is described as follows: fluorescence melting (AF488/BHQ-1). The conditions noted are these: 10 mM Mg2+; 100 mM Tris HCl, pH 6.5; 3 mM ATP, 50 nM aptamer; temperature of 50% ligand release, not a shift.

Test [2] relates to Re-engineered ATP-binding aptamer, 70-nt poly-T linker (DNA, aptamer) ACCTGGGGGAGTATTTTTTTTTTTTTTTTTTTTTTTTTTTTTTTTTTTTTTTTTTTTTTTTTTTTTTTTTTTTTTTTTTTTTTTTGCGGAGGAAGGA
The test is described as follows: fluorescence melting (AF488/BHQ-1). The conditions noted are these: 10 mM Mg2+; 100 mM Tris HCl, pH 6.5; 3 mM ATP, 50 nM aptamer; temperature of 50% ligand release, not a shift.

This passage reports T50% results from publication PMC9933611 (2023).

Structures are written as SMILES.

Regarding `Nc1ncnc2c1ncn2[C@@H]1O[C@H](COP(=O)(O)OP(=O)(O)OP(=O)(O)O)[C@@H](O)[C@H]1O`, the results for the T50% in test [1] and in test [2] were 59.0 ± 0.5 °C and 43.2 ± 0.5 °C, respectively.
